From patent US20260174780A1, “BISMUTH-THIOL COMPOSITIONS AND METHODS FOR TREATING INFLAMMATORY DISEASES” (Microbion Corporation, priority 2022, published 2026)

Tests used:
[1] = test system: FITC-induced contact hypersensitivity; test: FITC-induced contact hypersensitivity in mice (ear swelling, histopathology, ear cytokines); format: in vivo, BALB/c mice; details: Group 3, 1 mg/mL topical; mean ± standard deviation
Procedure: Protocol: Male BALB/c mice at 8 weeks old are used in the study.
All animals, except those in Group 1 (Sham), were sensitized topically (TOP) on the shaved abdominal skin with 200 μL of 0.5% Fluorescein Isothiocyanate (FITC) dissolved in 20% tributyrin in acetone on Days 1 and 2. On Day 7, animals were challenged by applying 20 μL of 0.5% FITC solution onto both sides of the right ear. Animals in Group 1 received nothing.
Vehicle, BisEDT test articles and reference compound (tacrolimus) were administered topically (TOP) once daily (QD) from Day 6 to Day 9 for 4 consecutive days (1 hour before FITC challenge on Day 7). The vehicle for BisEDT was phosphate-buffered saline (PBS).
• 2.5 mg/mL BisEDT topical suspension • 1.25 mg/mL BisEDT topical suspension—prepared as a 1:1 dilution of 2.5 mg/mL BisEDT topical suspension in sterile water and vortexed to ensure homogeneity
Analysis: Ear swelling was measured by an experimenter blinded to treatment group, with a dial thickness micrometer gauge as an index of inflammation 30 min before dosing on Days 7, 8, 9 and 10. On Day 10, ear swelling was measured at 24 hours after the last dosing. Ear edema was calculated by subtracting the thickness of Day 7 (normal control) from Day n (treated ear). Percentage inhibition was calculated according to the formula: (Ic−It)/Ic×100, where Ic and It refer to the increase of ear thickness (mm) both in the control and treated animals. Body weight was recorded daily during the study period.
The animals were sacrificed on Day 10 and the ears were then harvested and weighed. Half of the right ear was fixed in 10% formalin for histopathology, and the other half was processed for cytokine measurement (IL-18, IL-6, and IL-10) using ThermoFisher Mouse ProcartaPlex Kit by Luminex.

[2] = test system: lung tissue of M. abscessus infected mice; test: Lung histopathology in chronic M. abscessus infection study; format: in vivo, SCID/Beige mice; details: amikacin-treated (100 mg/kg/day), FIG. 5B
Procedure: After 28 days of treatment with BisEDT, animals were euthanized by CO2 and secondary cardiac puncture to collect whole blood for quantitation of BisEDT concentration. Lungs and spleens from the CFU mice were homogenized with 1:1 H2O:Dey-Englev neutralizing broth to deactivate BisEDT. CFUs were determined after serial dilution. Mice for histology and the lung pair split, one half in formalin the other half weighed and snap frozen in liquid N2 to determine tissue concentration of BisEDT.
Samples for histology were processed by the Veterinary Diagnostic Laboratory. Slides were stained with hematoxylin-eosin (HE stain) for general pathology as well as a slide for acid-fast stain to highlight the mycobacterial infection in lung tissue.

Hypo-InflammaSkin models = test: Ex vivo human skin model of psoriasis (Hypo-InflammaSkin), cytokine release in culture medium; format: cell-based; details: betamethasone 0.05% topical 25 μL daily Day 0-6
From the text: Background: InflammaSkin® model is a validated psoriasis-like model developed to reproduce key features of pro-Th17/Th1 inflammation associated with psoriasis. It relies on the in situ activation of resident T-cell of normal skin biopsies and their further polarization into Th17/Th1 phenotype with the supplementation of culture medium with a cocktail of pro-inflammatory cytokines.
Model production and culture: 2 HypoSkin models of 15 mm in diameter (1.76 cm^2) were produced from 1 donor and cultured with 2 mL standard HypoSkin® medium. 20 Hypo-InflammaSkin models were produced from 1 donor by inducing in sit activation and Th17/Th1 polarization of skin resident T cells with proprietary cocktail and cultured with 2 mL Hypo-InflammaSkin® culture medium. The total treatable surface area of the models was 113 mm^2, and dosing of BisEDT took this into account based on dosing of the topical treatment. Models were maintained in standard cell culture conditions for the whole culture duration at 37° C., 5% CO2 and water saturation, with appropriate culture medium renewed every day.
Treatment Groups: Model Treatment: (1) HypoSkin® untreated control; (2) Hypo-InflammaSkin® untreated control; (3) topical betamethasone (positive control); (4) topical BisEDT—2.5 mg/mL (treatment applied every day from day 0 to 6; (5) topical BisEDT—1.25 mg/mL (treatment applied every day from day 3 to 6). N=3 per treatment group, except N=5 for Hypo-InflammaSkin® and N=1 for HypoSkin®.
Topical Treatment—Betamethasone (control): 25 μL of betamethasone was topically applied onto the surface of each skin model. Topical application was performed from Day 0 to Day 6 after removal of the previous treatment residues using a cotton swab.
Topical Treatment—BisEDT: 36 μL of the test compound was topically applied onto the surface of each skin model, massaging across the entire surface area for 1 minute, using a parafilm wrapped cotton swab; the compound was left on the skin. Topical application was performed from Day 0 to Day 6 (Treatment Group 4) or Day 3 to Day 6 (Treatment Group 5). A total of 9 models were topically treated.
Culture Media—culture media was collected on Day 3 prior to treatment application and on Day 7 and frozen at −80° C. A total of 42 culture media samples were collected.
IL-22 release: IL-22 release was measured in culture media using ELISA Human IL-22 Quantikine Kit (Bio-techne, ref D2200). Only samples from control conditions 1 to 3 were analyzed to assess donor's response to T cell activation. Each sample was analyzed in duplicate.
MSD Immunoassay—cytokine release (IL-2, IL-13, IL-15, IL-17A, IL-22, TNF-α, INF-γ, MIP-1β, and […]) in the culture medium was measured using the V-PLEX Plus Human Cytokine Kit (KI5089G, MesoScale Discovery) (FIGS. 13D-13S).

## C=CC[C@@H]1/C=C(\C)C[C@H](C)C[C@H](OC)[C@H]2O[C@@](O)(C(=O)C(=O)N3CCCC[C@H]3C(=O)O[C@H](/C(C)=C/[C@@H]3CC[C@@H](O)[C@H](OC)C3)[C@H](C)[C@@H](O)CC1=O)[C@H](C)C[C@@H]2OC [Tacrolimus, tacrolimus]
[1]
  Hyperkeratosis (lesion score): 0.88 ± 0.64
  Hyperplasia (lesion score): 1.63 ± 0.52
  Inflammation (lesion score): 1.38 ± 0.52
  Necrosis (lesion score): 0.13 ± 0.35
  Total histological score: 4.00 ± 1.69

## NCC[C@H](O)C(=O)N[C@@H]1C[C@H](N)[C@@H](O[C@H]2O[C@H](CN)[C@@H](O)[C@H](O)[C@H]2O)[C@H](O)[C@H]1O[C@H]1O[C@H](CO)[C@@H](O)[C@H](N)[C@H]1O [amikacin, reference compound]
[2]
  lung histomorphologic observation: infiltration of mononuclear phagocytes, interstitial edema, and interstitial hemorrhage

## C[C@H]1C[C@H]2[C@@H]3CCC4=CC(=O)C=C[C@]4(C)[C@@]3(F)[C@@H](O)C[C@]2(C)[C@@]1(O)C(=O)CO [betamethasone, reference compound]
Hypo-InflammaSkin models
  IL-22 release, average concentration (ELISA): 16.67 µg/mL
